Measured values taken from patent US20220135580A1, “HYDROXYPH[…], METHODS AND USES THEREOF” (priority 2019, published 2022).
“Also recorded” adds a separate entry of the source.

How the values were obtained:
[1] = tested on: neutral lipids in zebrafish larvae; experiment: zebrafish Nile red fat metabolism assay (lipid reducing activity); assay type: in vivo, Zebrafish (Danio rerio); conditions: for fluorescence intensity of Nile red: all tested concentrations (156 ng/mL to 10 μg/mL); for lipid reducing activity / Nile red staining / IC50: zebrafish larvae, exposure for 48 h; for IC50: Nile red
Method: FIG. 1.A: Representative images of the zebrafish Nile red fat metabolism assay. Nile red fluorescence signal indicates neutral lipids around the yolk sac and stomach/intestine. […] A solvent control (0.1% dimethyl sulfoxide, DMSO) and positive control group (50 μM resveratrol, REV) was included.
FIG. 1.B: Quantification of lipid-reducing activity in the zebrafish Nile Red fat metabolism assay after exposure for 48 h. Values are expressed as mean fluorescence intensity (MFI) relative to the DMSO group and are derived from 6 to 8 individual larvae per treatment group. The data are represented as box-whisker plots (5 to 95 percentiles). Asterisks highlight significant differences compared to the DMSO group (****p<0.0001; ***p<0.001; **p<0.01; *p<0.05).
Zebrafish (Danio rerio) has become an attractive model organism for biomedical research. In the study of complex metabolic disorders like obesity, the use of more complex in vivo model systems as small whole animal models can bring significant advantages. For drug discovery, zebrafish assays can be used complementary to rodent assays, with easier handling, high predictive validity and cost-efficiency while compatible with high-throughput screening. […] The zebrafish Nile red fat metabolism assay analyses the capacity of compounds to reduce neutral lipids in zebrafish larvae in vivo.
(§1) 13^2(S)-hydroxy-pheophytin a (hpa) is a known compound, and belongs to the photosystem II complex of the chloroplast. The second is a novel compound, 13^2(S)-hydroxy-pheofarnesin a (hfa), which is structurally related to hpa.
In an embodiment, chlorophyll a and chlorophyll b were tested for lipid reducing activity on the zebrafish Nile red fat metabolism assay.

[2] = tested on: differentiated 3T3-L1 spheroids; experiment: lipolysis: free glycerol in the medium of 3T3-L1 spheroids; assay type: cell-based, murine; conditions: 3T3-L1 spheroids exposed over 48 h
Method: (§2) FIG. 2: Evaluation of lipid content (Nile red) and viability (calcein AM) in differentiated 3T3-L1 spheroids after exposure to compound 1 (hpa) and compound 2 (hfa) over 48 h. […] Statistical difference to the solvent control were analysed by One-Way ANOVA, followed by a Dunnett's multiple comparison post-test (***p-value<0.001, **p-value <0.01, *p-value <0.05). Quantification of free glycerol (lipolysis) on the medium where 3T3-L1 organoids were exposed to compound 1 (hpa) and compound 2 (hfa) over 48 h. […] Kolmogorov-Smirnov test was used to test normality of the data, followed by a Dunnett's multiple comparison post-test (***p-value <0.001, **p-value <0.01, *p-value <0.05).
(§3) In an embodiment, the bioactivity of hpa and hfa was confirmed in a further assay, using the murine pre-adipocyte cell line 3T3L1. […] In an embodiment, the activity in differentiated 3T3L1 spheroids was confirmed and analysis of lipolysis performed.

[3] = tested on: differentiated 3T3-L1 spheroids; experiment: lipid content (Nile red) in differentiated 3T3-L1 spheroids; assay type: cell-based, murine; conditions: for lipid accumulation: 48 h exposure, spheroids after 7 d differentiation; for lipid content of the spheroids: 3T3L1 cells grown and differentiated as spheroids
Method: as §2, §3

zebrafish larvae = experiment: general toxicity on zebrafish larvae (death, malformations); assay type: in vivo, Zebrafish (Danio rerio); conditions: same concentration ranges as lipid reducing activity
Source text: as §1

[4] = tested on: differentiated 3T3-L1 spheroids; experiment: viability (calcein AM) in differentiated 3T3-L1 spheroids; assay type: cell-based, murine; conditions: for reduction of viability of spheroids: not significant; for toxicity by calcein AM staining: 3T3L1 spheroids
Method: as §2, §3

cancer cells = conditions: Cheng et al., 2001; cited from earlier work

## C=Cc1c(C)c2cc3nc(c4c5[n-]c(cc6nc(cc1[n-]2)C(C)=C6CC)c(C)c5C(=O)[C@@H]4C(=O)OC)[C@@H](CCC(=O)OC/C=C(\C)CCC[C@H](C)CCC[C@H](C)CCCC(C)C)[C@@H]3C.[Mg+2] [chlorophyll a]
[1]
  fluorescence intensity of Nile red: did not reduce the fluorescence intensity
  lipid reducing activity / Nile red staining: not present; also recorded: did not demonstrate any lipid reducing activity

## C=Cc1c(C)c2cc3nc(c4c5[n-]c(cc6nc(cc1[n-]2)C(C=O)=C6CC)c(C)c5C(=O)[C@@H]4C(=O)OC)[C@@H](CCC(=O)OC/C=C(\C)CCC[C@H](C)CCC[C@H](C)CCCC(C)C)[C@@H]3C.[Mg+2] [chlorophyll b]
[1]
  fluorescence intensity of Nile red: did not reduce the fluorescence intensity
  lipid reducing activity / Nile red staining: not present; also recorded: did not demonstrate any lipid reducing activity

## 13^2-(S)-hydroxy-pheophytin a [hpa]
[2]
  lipolytic activity / free glycerol content in the medium: did not alter lipolytic activities
[2]; listed as compound 1
  lipolytic activity / free glycerol content in the medium: No significant alterations
[3]; 7.5 μg/mL
  lipid accumulation: significant reduction of lipid accumulation
[3]; 15 μg/mL
  lipid accumulation: significant reduction of lipid accumulation
[3]; 30 μg/mL
  lipid accumulation: significant reduction of lipid accumulation
[3]
  lipid content of the spheroids: reduced significantly the lipid content
[1]
  IC50: 8.9 ± 0.4 µM
  lipid reducing activity / Nile red staining: show a decrease in the Nile red staining
Zebrafish larvae
  general toxicity (death, malformations): No general toxicity was observed
[4]; 15 μg/mL, 48 h
  reduction of viability of spheroids: 20%
[4]; 30 μg/mL, 48 h
  reduction of viability of spheroids: 20%
[4]
  toxicity by calcein AM staining: No toxicity was observed
Cancer cells
  cytotoxicity on cancer cells: 8.8 to 22 µg/mL

## 13^2-(S)-hydroxy-pheofarnesin a [hfa]
[2]
  lipolytic activity / free glycerol content in the medium: did not alter lipolytic activities
[2]; listed as compound 2
  lipolytic activity / free glycerol content in the medium: No significant alterations
[3]; 30 μg/mL
  lipid accumulation: significant reduction of lipid accumulation
[3]
  lipid content of the spheroids: reduced significantly the lipid content
[1]
  IC50: 15.5 ± 1.3 µM
  lipid reducing activity / Nile red staining: show a decrease in the Nile red staining
Zebrafish larvae
  general toxicity (death, malformations): No general toxicity was observed
[4]
  toxicity by calcein AM staining: No toxicity was observed
[4]; any concentration, 48 h
  reduction in viability of spheroids: did not cause any reduction in viability
